Experimental data: patent US10801035B2, “Plants having increased tolerance to herbicides” (BASF SE, priority 2011, dated 2020)
pKi: −log10 of the molar value.

How the values were obtained:
[1] = target: T1, Arabidopsis HPPD (SEQ ID: 53) (Arabidopsis thaliana, UniProt P93836); experiment: HPPD activity assay, wildtype Arabidopsis HPPD; assay type: biochemical; settings: for Normalized tolerance index (TI): Arabidopsis HPPD Wildtype, normalized on wildtype (Table 11); for pKi / TI (tolerance index): Arabidopsis HPPD; for pKi: Cheng-Prusoff from IC50, read-out: Ki (dissociation constant); for TI (tolerance index): not normalized
T1 construct: His6 (N); made in house; host or cells: E. coli BL21 (DE3)
T1 sequence (P93836 1-445): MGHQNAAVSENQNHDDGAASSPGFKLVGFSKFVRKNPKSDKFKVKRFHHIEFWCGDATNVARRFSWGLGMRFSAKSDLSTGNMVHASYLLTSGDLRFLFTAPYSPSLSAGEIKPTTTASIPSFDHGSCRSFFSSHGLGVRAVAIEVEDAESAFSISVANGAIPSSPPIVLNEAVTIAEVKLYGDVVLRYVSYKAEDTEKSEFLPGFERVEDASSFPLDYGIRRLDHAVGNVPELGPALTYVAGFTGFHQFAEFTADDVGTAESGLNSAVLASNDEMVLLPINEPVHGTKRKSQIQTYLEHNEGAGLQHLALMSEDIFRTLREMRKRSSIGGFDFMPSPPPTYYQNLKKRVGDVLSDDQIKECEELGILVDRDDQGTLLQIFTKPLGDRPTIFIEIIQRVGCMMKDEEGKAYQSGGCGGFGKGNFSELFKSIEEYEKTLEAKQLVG
Description: (§1) HPPD produces homogentisic acid and CO2 from 4-hydroxyphenylpyruvate (4-HPP) and O2. The activity assay for HPPD is based on the analysis of homogentisic acid by reversed phase HPLC.
The assay mixture can contain 150 mM potassium phosphate buffer pH 7.0, 50 mM L-ascorbic acid, 1 μM FeSO4 and 7 μg of purified enzyme in a total volume of 1 ml. Inhibitors are dissolved in DMSO (dimethylsulfoxide) to a concentration of 20 mM or 0.5 mM, respectively. From this stock solution serial five-fold dilutions are prepared in DMSO, which are used in the assay. The respective inhibitor solution accounts for 1% of the assay volume. Thus, final inhibitor concentrations range from 200 μM to 2.5 nM or from 5 μM to 63 pM, respectively. After a preincubation of 30 min the reaction is started by adding 4-HPP to a final concentration of 0.1 mM. The reaction is allowed to proceed for 120 min at room temperature. The reaction is stopped by addition of 100 μl of 4.5 M phosphoric acid.
Activities are normalized by setting the uninhibited enzyme activity to 100%. […] values are calculated using non-linear regression.
The assay mixture can contain 150 mM potassium phosphate buffer pH 7.0, 50 mM L-ascorbic acid, 100 μM Catalase (Sigma-Aldrich), 1 μM FeSO4 and 0.2 units of purified HPPD enzyme in a total volume of 505 μl. 1 unit is defined as the amount of enzyme that is required to produce 1 nmol of HGA per minute at 20° C.
Inhibitors are dissolved in DMSO (dimethylsulfoxide) to a concentration of 0.5 mM. From this stock solution serial five-fold dilutions are prepared in DMSO, which are used in the assay. The respective inhibitor solution accounts for 1% of the assay volume. Thus, final inhibitor concentrations range from 5 μM to 320 pM, respectively. Activities are normalized by setting the uninhibited enzyme activity to 100%. IC50 values are calculated using non-linear regression.
Using methods which are described in the above examples or well known in the art, purified, recombinant wildtype HPPD enzymes are characterized with respect to their kinetic properties and sensitivity towards HPPD inhibiting herbicides. Apparent michaelis constants (Km) and maximal reaction velocities (Vmax) are calculated by non-linear regression with the software GraphPad Prism 5 (GraphPad Software, La Jolla, USA) using a substrate inhibition model. Apparent kcat values are calculated from Vmax assuming 100% purity of the enzyme preparation. Weighted means (by standard error) of Km and […] values are calculated from at least three independent experiments. The Cheng-Prusoff equation for competitive inhibition (Cheng, Y. C.; Prusoff, W. H. Biochem Pharmacol 1973, 22, 3099-3108) is used to calculate dissociation constants (Ki).
Field performance of the HPPD enzyme, which is used as a herbicide tolerance trait may depend not only on its lack of sensitivity towards HPPD inhibiting herbicides but also on its activity. To assess the potential performance of a herbicide tolerance trait a tolerance index (TI) is calculated using the following formula: […]
Easy comparison and ranking of each trait is enabled by normalizing every tolerance index on Hordeum HPPD.

Kordia HPPD = experiment: HPPD activity assay, Kordia HPPD; assay type: biochemical; settings: normalized on Hordeum HPPD
Description: as §1
(§2) The assay mixture can contain 150 mM potassium phosphate buffer pH 7.0, 50 mM L-ascorbic acid, 1 μM FeSO4 and 7 μg of purified enzyme in a total volume of 1 ml. Inhibitors are dissolved in DMSO (dimethylsulfoxide) to a concentration of 20 mM or 0.5 mM, respectively. From this stock solution serial five-fold dilutions are prepared in DMSO, which are used in the assay. The respective inhibitor solution accounts for 1% of the assay volume. […]
(§3) Activities are normalized by setting the uninhibited enzyme activity to 100%. […] values are calculated using non-linear regression. […]
(§4) Inhibitors are dissolved in DMSO (dimethylsulfoxide) to a concentration of 0.5 mM. […] IC50 values are calculated using non-linear regression.
(§5) Using methods which are described in the above examples or well known in the art, purified, recombinant wildtype HPPD enzymes are characterized with respect to their kinetic properties and sensitivity towards HPPD inhibiting herbicides. Apparent michaelis constants (Km) and maximal reaction velocities (Vmax) are calculated by non-linear regression with the software GraphPad Prism 5 (GraphPad Software, La Jolla, USA) using a substrate inhibition model. […]

Lolium HPPD = experiment: HPPD activity assay, Lolium HPPD; assay type: biochemical; settings: normalized on Hordeum HPPD
Description: as §1, §2, §3, §4, §5

Rhodococcus HPPD1 = experiment: HPPD activity assay, Rhodococcus HPPD1; assay type: biochemical; settings: normalized on Hordeum HPPD
Description: as §1, §2, §3, §4, §5

[2] = test system: Arabidopsis wildtype control plants; experiment: Arabidopsis growth inhibition in 48-well plates, wildtype control; assay type: in vivo, Arabidopsis thaliana; settings: plant growth IC50 divided by that of wildtype plants
Description: Depending on the species, the plants are kept at 10-25° C. or 20-35° C. The test period extends over 3 weeks. During this time, the plants are tended and their response to the individual treatments is evaluated. Herbicide injury evaluations are taken at 2 and 3 weeks after treatment. Plant injury is rated on a scale of 0 to 9, 0 being no injury and 9 being complete death. Tolerance to coumarone-derivative herbicides can also be assessed in Arabidopsis. In this case transgenic Arabidopsis thaliana plants are assayed for improved tolerance to coumarone-derivative herbicides in 48-well plates. Seeds are surface sterilized by stirring for 5 min in ethanol+water (70+30 by volume), rinsing one time with ethanol+water (70+30 by volume) and two times with a sterile, deionized water. The seeds are resuspended in 0.1% agar dissolved in water (w/v). Four to five seeds per well are plated on solid nutrient medium consisting of half-strength Murashige Skoog nutrient solution, pH 5.8 (Murashige and Skoog (1962) Physiologia Plantarum 15: 473-497). […] Seven to ten days after seeding growth inhibition is evaluated by comparison to wild type plants. Tolerance factor is calculated by dividing the plant growth IC50 value of transgenic plants containing a HPPD and/or HST sequence by that of wildtype plants. […]

O=S1(=O)C(c2c(Cl)cc(Cl)nc2Cl)=C(O)c2ncccc2N1CC(F)F [Inhibitor 2, 1-(2,2-difluoroethyl)-2,2-dioxo-3-(2,4,6-trichloro-3-pyridyl)pyrido[3,2-c]thiazin-4-ol]
Normalized tolerance index (TI) [1]: 1 | pKi [1]: 7.82 | TI (tolerance index) [1]: 1.5E−2 | Normalized tolerance index (TI) (Kordia HPPD): 12 | Normalized tolerance index (TI) (Lolium HPPD): 5.6 | Normalized tolerance index (TI) (Rhodococcus HPPD1): 17.1 | Tolerance factor [2]: 1

CC1=NOC(c2c(Cl)ccc(C3=C(O)c4ncccc4N(CC(F)F)S3(=O)=O)c2Cl)C1 (centres unmarked) [Inhibitor 1, 3-[2,4-dichloro-3-(3-methyl-4,5-dihydroisoxazol-5-yl)phenyl]-1-(2,2-difluoroethyl)-2,2-dioxo-pyrido[3,2-c]thiazin-4-ol]
Normalized tolerance index (TI) [1]: 1 | pKi [1]: 8.48 | TI (tolerance index) [1]: 3.3E−3 | Normalized tolerance index (TI) (Kordia HPPD): 7.5 | Normalized tolerance index (TI) (Lolium HPPD): 6.5 | Normalized tolerance index (TI) (Rhodococcus HPPD1): 40.1 | Tolerance factor [2]: 1
